Legend:
[1] = target: T1, 5-HT4 receptor (UniProt Q13639); test: 5-HT4 receptor binding ([3H]-GR113808 displacement)
T1 construct: Human 5-HT4(d) transfected HEK293 cells were prepared and grown in-house
Method: The 5-HT4 receptor binding affinities of the compounds of this invention are determined by the following procedures. […]
Human 5-HT4(d) transfected HEK293 cells were prepared and grown in-house. The collected cells were suspended in 50 mM HEPES (pH 7.4 at 4° C.) supplemented with protease inhibitor cocktail (Boehringer, 1:1000 dilution) and homogenized using a hand held Polytron PT 1200 disruptor set at full power for 30 sec on ice. The homogenates were centrifuged at 40,000×g at 4° C. for 30 min. The pellets were then resuspended in 50 mM HEPES (pH 7.4 at 4° C.) and centrifuged once more in the same manner. The final pellets were resuspended in an appropriate volume of 50 mM HEPES (pH 7.4 at 25° C.), homogenized, aliquoted and stored at −80° C. until use. An aliquot of membrane fractions was used for protein concentration determination using BCA protein assay kit (PIERCE) and ARVOsx plate reader (Wallac).
For the binding experiments, 25 μl of test compounds were incubated with 25 μl of [^3H]-GR113808 (Amersham, final 0.2 nM) and 150 μl of membrane homogenate and WGA-SPA beads (Amersham) suspension solutions (10 μg protein and 1 mg SPA beads/well) for 60 minutes at room temperature. Nonspecific binding was determined by 1 μM GR113808 (Tocris) at the final concentration. Incubation was terminated by centrifugation at 1000 rpm. Receptor-bound radioactivity was quantified by counting with MicroBeta plate counter (Wallac).

[2] = target: T2, HERG potassium channel (Homo sapiens, UniProt Q12809); test: Human dofetilide binding ([3H]-dofetilide, HERG transfected HEK293S cell membranes); conditions: for TI (Defetilide/5HT4): TI = Dofetilide Binding Ki [μM] / 5HT4 Binding Ki [nM] × 1000; for Ki: [3H]-dofetilide 5 nM, human HERG transfected HEK293S membranes
T2 construct: expressed in transfected cells; host or cells: HEK293S
Method: Inhibitory activity at HERG channel was estimated from affinity for HERG type potassium channel was investigated by checking [^3H]dofetilide binding, which can predict inhibitory activity at HERG channel (Eur. J. Pharmacol., 430, pp 147–148, 2001). Selected compounds with low [^3H]dofetilide binding activity were evaluated in IHERG assay to check activity at HERG channel. Introducing a branched chain group to nitrogen atom in piperidine ring contributed to potent 5-HT4 receptor agonist activities with reduced inhibitory activity at HERG channel. The compounds of the present invention may show less toxicity, good absorption, distribution and less drug-drug interaction, and have metabolic stability.
Human HERG transfected HEK293S cells were prepared and grown in-house. The collected cells were suspended in 50 mM Tris-HCl (pH 7.4 at 4° C.) and homogenized using a hand held Polytron PT 1200 disruptor set at full power for 20 sec on ice. The homogenates were centrifuged at 48,000×g at 4° C. for 20 min. The pellets were then resuspended, homogenized, and centrifuged once more in the same manner. The final pellets were resuspended in an appropriate volume of 50 mM Tris-HCl, 10 mM KCl, 1 mM MgCl2 (pH 7.4 at 4° C.), homogenized, aliquoted and stored at −80° C. until use. An aliquot of membrane fractions was used for protein concentration determination using BCA protein assay kit (PIERCE) and ARVOsx plate reader (Wallac).
Binding assays were conducted in a total volume of 200 μl in 96-well plates. Twenty μl of test compounds were incubated with 20 μl of [^3H]-dofetilide (Amersham, final 5 nM) and 160 μl of membrane homogenate (25 μg protein) for 60 minutes at room temperature. Nonspecific binding was determined by 10 μM dofetilide at the final concentration. Incubation was terminated by rapid vacuum filtration over 0.5% presoaked GF/B Betaplate filter using Skatron cell harvester with 50 mM Tris-HCl, 10 mM KCl, 1 mM MgCl2, pH 7.4 at 4° C. The filters were dried, put into sample bags and filled with Betaplate Scint. Radioactivity bound to filter was counted with Wallac Betaplate counter.

T2 sequence (Q12809 whole entry): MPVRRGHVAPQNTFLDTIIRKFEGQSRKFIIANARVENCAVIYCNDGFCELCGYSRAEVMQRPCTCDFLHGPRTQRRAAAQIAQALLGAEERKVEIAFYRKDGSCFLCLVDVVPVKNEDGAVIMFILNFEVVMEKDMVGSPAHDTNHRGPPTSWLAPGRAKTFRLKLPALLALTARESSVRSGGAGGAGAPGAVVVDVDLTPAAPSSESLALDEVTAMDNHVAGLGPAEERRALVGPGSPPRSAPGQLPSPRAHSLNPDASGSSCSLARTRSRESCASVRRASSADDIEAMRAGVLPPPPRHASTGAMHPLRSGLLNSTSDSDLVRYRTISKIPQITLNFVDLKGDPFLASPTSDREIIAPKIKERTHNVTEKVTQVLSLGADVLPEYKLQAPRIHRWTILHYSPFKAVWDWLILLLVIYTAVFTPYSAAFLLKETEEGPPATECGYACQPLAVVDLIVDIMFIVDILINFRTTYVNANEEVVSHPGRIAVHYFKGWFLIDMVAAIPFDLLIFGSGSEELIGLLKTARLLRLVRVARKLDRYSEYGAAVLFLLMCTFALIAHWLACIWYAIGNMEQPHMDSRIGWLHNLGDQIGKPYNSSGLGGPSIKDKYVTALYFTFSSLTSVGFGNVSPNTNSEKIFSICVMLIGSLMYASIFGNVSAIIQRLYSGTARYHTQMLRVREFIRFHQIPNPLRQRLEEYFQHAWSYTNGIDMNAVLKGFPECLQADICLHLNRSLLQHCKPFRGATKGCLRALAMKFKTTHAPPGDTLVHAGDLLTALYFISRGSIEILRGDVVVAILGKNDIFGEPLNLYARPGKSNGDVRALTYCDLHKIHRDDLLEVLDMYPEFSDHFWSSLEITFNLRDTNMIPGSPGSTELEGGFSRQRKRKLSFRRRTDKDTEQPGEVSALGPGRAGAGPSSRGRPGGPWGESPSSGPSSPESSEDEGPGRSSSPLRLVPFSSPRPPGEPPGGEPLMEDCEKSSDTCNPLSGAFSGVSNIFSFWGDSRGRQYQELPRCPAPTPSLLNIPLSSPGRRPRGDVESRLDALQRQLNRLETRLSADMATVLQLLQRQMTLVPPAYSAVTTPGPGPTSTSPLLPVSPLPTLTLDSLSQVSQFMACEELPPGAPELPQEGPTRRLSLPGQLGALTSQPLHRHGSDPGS

Row | melting point [°C] | Ki [1] [nM] | SMILES | TI (Defetilide/5HT4) [2] | Ki [2] [nM]
1 | 234 | 0.77 | CCc1cn2c(N)c(Cl)cc(C(=O)NCC3CCN(CCC(C)(C)C)CC3)c2n1 [Example 3, 5-Amino-6-chloro-N-{[1-(3,3-dimethylbutyl)piperidin-4-yl]methyl}-2-ethylimidazo[1,2-a]pyridine-8-carboxamide] | 5,000 | 3870
2 | 199 | – | COCC(C)(C)CN1CCC(CNC(=O)c2cc(Cl)c(N)n3cc(C)nc23)CC1 [Example 9, 5-amino-6-chloro-N-{[1-(3-methoxy-2,2-dimethylpropyl)piperidin-4-yl]methyl}2-methylimidazo[1,2-a]pyridine-8-carboxamide] | – | –
3 | 216 to 219 | 0.82 | Cc1cn2c(N)c(Cl)cc(C(=O)NCC3CCN(CC(C)C)CC3)c2n1 [Example 1, 5-Amino-6-chloro-N-[(1-isobutylpiperidin-4-yl)methyl]-2-methylimidazo[1,2-a]pyridine-8-carboxamide] | 7,000 | 5750
4 | – | 1.2 | CCCCN1CCC(CNC(=O)c2cc(Cl)c(N)n3cc(C)nc23)CC1 [Compound A, reference compound] | 1,900 | 2300
5 | 211 | 2 | COC(C)(C)CN1CCC(CNC(=O)c2cc(Cl)c(N)n3cc(C)nc23)CC1 [Example 5, 5-Amino-6-chloro-2-methyl-N-{[1-(2-methoxy-2-methylpropyl)piperidin-4-yl]methyl}imidazo[1,2-a]pyridine-8-carboxamide] | – | > 24000
6 | 211 | 1.2 | CCc1cn2c(N)c(Cl)cc(C(=O)NCC3CCN(CC(C)(C)OC)CC3)c2n1 [Example 4, 5-Amino-6-chloro-2-ethyl-N-{[1-(2-methoxy-2-methylpropyl)piperidin-4-yl]methyl}imidazo[1,2-a]pyridine-8-carboxamide] | – | 22300
7 | – | 3.1 | Cc1cn2c(N)ccc(C(=O)NCC3CCN(CC(C)C)CC3)c2n1 [Example 2, 5-Amino-N-[(1-isobutylpiperidi-4-yl)methyl]-2-methylimidazo[1,2-a]pyridine-8-carboxamide] | 7,800 | 24100
8 | 199 | – | COC(C)(C)CCN1CCC(CNC(=O)c2cc(Cl)c(N)n3cc(C)nc23)CC1 [Example 8, 5-Amino-6-chloro-N-{[1-(3-methoxy-3-methylbutyl)piperidin-4-yl]methyl}2-methylimidazo[1,2-a]pyridine-8-carboxamide] | – | –
9 | – | 4.6 | COCCCN1CCC(CNC(=O)c2cc(Cl)c(N)n3cc(C)nc23)CC1 [Compound B, reference compound] | 1,300 | 6000

From patent US7012080B2, “Imidazopyridine compounds as 5-HT4 receptor agonists” (Pfizer Inc., priority 2002, dated 2006)
